Assays:
[1] = Inhibitory concentration against Protein farnesyltransferase of Trypanosoma cruzi
Trypanosoma cruzi = test: Inhibition of Trypanosoma cruzi growth; format: functional; settings: read-out: ED50 (the source's name)

Molecule `Cn1cncc1[C@@](N)(c1ccc(Cl)cc1)c1ccc2c(c1)c(-c1cccc(Cl)c1)cc(=O)n2C` [TIPIFARNIB] has an IC50 [1] of about 75 nM and an EC50 (Trypanosoma cruzi) of 4 nM.

Reference: ChEMBL document CHEMBL1141155, “The protein farnesyltransferase inhibitor Tipifarnib as a new lead for the development of drugs against Chagas disease” (J Med Chem, 2005)
